The experiment is described as follows: Inhibitory concentration against Escherichia coli heat-labile enterotoxin (LT) binding to ganglioside GD1b was determined by ELISA assay.

The text below walks through data of ChEMBL document CHEMBL1132211, “The role of waters in docking strategies with incremental flexibility for carbohydrate derivatives: heat-labile enterotoxin, a multivalent test case” (J Med Chem, 1999).

As a reminder, the IC50 is the concentration that gives 50% inhibition. The compound `O=[N+]([O-])c1cccc(O[C@@H]2O[C@H](CO)[C@H](O)[C@H](O)[C@H]2O)c1` registered a half-maximal inhibitory concentration (IC50) of 0.6 µM. This counts as sub-micromolar.
In the case of `O=C(O)[C@H](O)[C@@H](O)[C@H](O)[C@H](O)CO[C@@H]1O[C@H](CO)[C@H](O)[C@H](O)[C@H]1O` it was 7 µM; in that of `O=C[C@H](O)[C@@H](O)[C@@H](O)[C@H](O)CO` [GALACTOSE], 57 µM.
As to `OC[C@H]1O[C@@H](O[C@@H]2[C@@H](CO)O[C@](O)(CO)[C@H]2O)[C@H](O)[C@@H](O)[C@H]1O` [LACTULOSE], the 50% inhibitory concentration (IC50) is 15 µM.
In the case of `OC[C@H]1O[C@@H](S[C@@H]2O[C@H](CO)[C@H](O)[C@H](O)[C@H]2O)[C@H](O)[C@@H](O)[C@H]1O` [THIODIGALACTOSIDE] it was 4 µM; in that of LACTOSE, ANHYDROUS, 45 µM.
